≈ marks a conversion by molar mass, not a printed value. Like-named read-outs stand apart in the source and are kept apart here.
Experiments:
S. flexneri M90T [1] = experiment: microbe, parasite or virus in culture; details: Shigella flexneri, read-out: MIC SF
Method: (§1) MIC measurement. The minimum inhibitory concentrations (MICs) of compounds were measured using the broth microdilution method.1 One stab using 10 µL tip from bacteria glycerol stock was inoculated into 5 mL of LB supplemented with selection antibiotics (Kanamycin for Keio collections and chloramphenicol for ASKA collections), and the culture was incubated at 37 °C with shaking overnight. […] The plate was incubated at 37 °C for 16 ~ 20 h with shaking at 80 rpm and the OD600 was measured using Cytation 5 plate reader (BioTek). MIC was determined as the lowest concentration for which no bacterial growth was observed. LB was used as the growth media for all the bacteria strains unless otherwise mentioned. For S. aureus and A. baumannii strains, tryptic soy broth (TSB, BD, DF0370-17-3) was used as the growth media instead of LB. For P. aeruginosa and K. pneumoniae strains, nutrient broth (NB, RPI, N15100) was used as growth media. All MIC measurements were performed in at least biological duplicates.

V. cholerae SAD30 = test system: T1, V. cholerae SAD30; experiment: microbe, parasite or virus in culture; set-up: species or system bacterial strain; broth microdilution MIC, OD600, lowest concentration without visible bacterial growth; details: Vibrio cholerae, SAD30, read-out: MIC VC
T1 construct: SAD30
Method: as §1

S. aureus MSSA476 = test system: T2, S. aureus MSSA476; experiment: microbe, parasite or virus in culture; set-up: species or system bacterial strain; broth microdilution MIC, OD600, lowest concentration without visible bacterial growth; details: Staphylococcus aureus, MSSA476, read-out: MIC SA
T2 construct: MSSA476
Method: as §1

E. coli JPN15 = test system: T3, E. coli JPN15; experiment: microbe, parasite or virus in culture; set-up: species or system bacterial strain; broth microdilution MIC, OD600, lowest concentration without visible bacterial growth; details: Escherichia coli, JPN15, read-out: MIC EC
T3 construct: JPN15 (EPEC)
Method: as §1

S. flexneri M90T [2] = test system: T4, S. flexneri M90T; experiment: microbe, parasite or virus in culture; set-up: species or system bacterial strain; broth microdilution MIC, OD600, lowest concentration without visible bacterial growth; details: Shigella flexneri, read-out: MIC SF
T4 construct: M90T
Method: as §1

Sf_FabH = biological target: T5, Sf_FabH (Shigella flexneri, UniProt Q83RS8); experiment: in-gel fluorescence competition with 5-TMRIA; assay type: binding; details: covalent; 1 h preincubation
T5 construct: gene fabH; recombinant, purified from E. coli BL21; also native protein in live S. flexneri M90T (ABPP rows)
T5 sequence (Q83RS8 1-317): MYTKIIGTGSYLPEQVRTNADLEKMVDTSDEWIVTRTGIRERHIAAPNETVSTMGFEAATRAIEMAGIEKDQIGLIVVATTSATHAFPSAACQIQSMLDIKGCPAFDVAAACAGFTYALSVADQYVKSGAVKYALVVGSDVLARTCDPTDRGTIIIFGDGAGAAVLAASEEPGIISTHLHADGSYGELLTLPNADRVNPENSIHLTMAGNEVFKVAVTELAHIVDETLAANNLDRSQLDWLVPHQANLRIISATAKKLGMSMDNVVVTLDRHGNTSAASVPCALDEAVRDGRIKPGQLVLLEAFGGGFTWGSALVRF

Sf_MiaA [3] = biological target: T6, Sf_MiaA (Shigella flexneri, UniProt P59197); experiment: in-gel fluorescence competition with 5-TMRIA; assay type: binding; details: covalent; Cys273; 1 h preincubation
T6 construct: gene miaA; recombinant, purified from E. coli BL21; two cysteines in total; also native protein in live S. flexneri M90T (ABPP row)
T6 sequence (P59197 1-316): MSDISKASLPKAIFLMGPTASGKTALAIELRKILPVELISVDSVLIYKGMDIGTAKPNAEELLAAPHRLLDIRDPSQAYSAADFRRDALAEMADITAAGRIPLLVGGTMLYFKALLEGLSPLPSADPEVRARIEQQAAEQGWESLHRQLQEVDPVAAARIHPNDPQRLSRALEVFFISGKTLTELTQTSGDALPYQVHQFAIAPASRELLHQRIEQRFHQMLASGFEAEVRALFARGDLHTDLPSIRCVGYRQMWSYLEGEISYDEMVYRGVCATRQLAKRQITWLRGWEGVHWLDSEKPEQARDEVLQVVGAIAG

P. aeruginosa BAA-2110 = test system: T7, P. aeruginosa BAA-2110; experiment: microbe, parasite or virus in culture; set-up: species or system bacterial strain; broth microdilution MIC, OD600, lowest concentration without visible bacterial growth; details: Pseudomonas aeruginosa, BAA2110, read-out: 10-F05 MIC µM
T7 construct: BAA-2110
Method: as §1

K. pneumoniae 13883 = test system: T8, K. pneumoniae 13883; experiment: microbe, parasite or virus in culture; set-up: species or system bacterial strain; broth microdilution MIC, OD600, lowest concentration without visible bacterial growth; details: Klebsiella pneumoniae, 13883, read-out: 10-F05 MIC µM
T8 construct: 13883
Method: as §1

E. cloacae 13047 = test system: T9, E. cloacae 13047; experiment: microbe, parasite or virus in culture; set-up: species or system bacterial strain; broth microdilution MIC, OD600, lowest concentration without visible bacterial growth; details: Enterobacter cloacae, 13047, read-out: 10-F05 MIC µM
T9 construct: 13047
Method: as §1

A. baumannii BAA-1790 = test system: T10, A. baumannii BAA-1790; experiment: microbe, parasite or virus in culture; set-up: species or system bacterial strain; broth microdilution MIC, OD600, lowest concentration without visible bacterial growth; details: Acinetobacter baumannii, BAA1790, read-out: 10-F05 MIC µM
T10 construct: BAA-1790
Method: as §1

K. pneumoniae 700603 = test system: T11, K. pneumoniae 700603; experiment: microbe, parasite or virus in culture; set-up: species or system bacterial strain; broth microdilution MIC, OD600, lowest concentration without visible bacterial growth; details: Klebsiella pneumoniae, 700603, read-out: 10-F05 MIC µM
T11 construct: 700603
Method: as §1

E. coli (KPC+) BAA-2340 = test system: T12, E. coli (KPC+) BAA-2340; experiment: microbe, parasite or virus in culture; set-up: species or system bacterial strain; broth microdilution MIC, OD600, lowest concentration without visible bacterial growth; details: Escherichia coli, BAA2340, read-out: 10-F05 MIC µM
T12 construct: BAA-2340 (KPC+)
Method: as §1

Sa_FabH = biological target: T13, Sa_FabH (Staphylococcus aureus, UniProt Q6GAU3); experiment: in-gel fluorescence competition with 5-TMRIA; assay type: binding; details: covalent
T13 construct: gene fabH; purified protein
T13 sequence (Q6GAU3 1-313): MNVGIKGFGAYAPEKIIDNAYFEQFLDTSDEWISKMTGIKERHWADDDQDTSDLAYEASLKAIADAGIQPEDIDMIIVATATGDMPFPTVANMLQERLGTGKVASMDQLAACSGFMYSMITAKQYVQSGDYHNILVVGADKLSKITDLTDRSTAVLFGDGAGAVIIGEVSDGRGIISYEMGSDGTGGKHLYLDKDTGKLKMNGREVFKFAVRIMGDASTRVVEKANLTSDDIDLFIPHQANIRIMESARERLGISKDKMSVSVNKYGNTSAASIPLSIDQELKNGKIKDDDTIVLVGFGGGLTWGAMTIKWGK

Sf_PdxY = biological target: T14, Sf_PdxY (Shigella flexneri, UniProt Q83KY1); experiment: in-gel fluorescence competition with 5-TMRIA; assay type: binding; details: covalent; 1 h preincubation
T14 construct: gene pdxY; recombinant, purified from E. coli BL21; also native protein in live S. flexneri M90T (ABPP row)
T14 sequence (Q83KY1 1-287): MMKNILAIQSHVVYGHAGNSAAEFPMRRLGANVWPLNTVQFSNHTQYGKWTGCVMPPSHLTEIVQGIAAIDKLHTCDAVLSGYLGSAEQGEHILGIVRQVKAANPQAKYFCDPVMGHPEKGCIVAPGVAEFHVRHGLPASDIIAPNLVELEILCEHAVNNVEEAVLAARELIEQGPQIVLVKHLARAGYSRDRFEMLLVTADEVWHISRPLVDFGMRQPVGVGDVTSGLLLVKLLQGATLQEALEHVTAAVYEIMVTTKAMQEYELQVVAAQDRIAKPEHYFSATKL

Sf_MiaA [4] = biological target: T6, Sf_MiaA; experiment: i6A-37 tRNA formation followed by LC-MS after preincubation; assay type: biochemical; details: covalent; Cys273; tRNA-Trp 34-mer substrate
Method: i6A-37 tRNA formation followed by LC-MS after preincubation on Sf_MiaA | preincubation of 10-F05 with MiaA decreased the initial velocity of modified tRNA forming rate

Row | SMILES | MIC (S. flexneri M90T [1]) [µM] | MIC (V. cholerae SAD30) [µM] | MIC (S. aureus MSSA476) [µM] | MIC (E. coli JPN15) [µM] | MIC (S. flexneri M90T [2]) [µM] | other results
1 | CC(=O)c1cn(-c2ccc(F)cc2)nn1 [10-F05-N] | > 100 | > 100 | > 100 | > 100 | – | –
2 | Cc1cccc(-n2cc(C(=O)CCl)nn2)c1 [10-L07] | – | 25 (≈ 5.89 µg/mL) | 10 (≈ 2.36 µg/mL) | 50 (≈ 11.8 µg/mL) | 5 (≈ 1.18 µg/mL) | –
3 | CC(=O)c1cnccc1F [10-I09-N] | > 100 | > 100 | > 100 | > 100 | – | –
4 | O=C(CCl)c1cn(-c2cccc(C(F)(F)F)c2)nn1 [10-C09] | – | 100 (≈ 29 µg/mL) | 25 (≈ 7.24 µg/mL) | 100 (≈ 29 µg/mL) | 25 (≈ 7.24 µg/mL) | –
5 | CC(=O)c1ccccn1 [10-J03-N] | > 100 | > 100 | > 100 | > 100 | – | –
6 | CC(=O)c1cn(-c2cccc(C)c2)nn1 [10-L07-N] | > 100 | > 100 | > 100 | > 100 | – | –
7 | O=C(CCl)c1cn(-c2ccc(F)cc2)nn1 [10-F05] | – | 10 (≈ 2.4 µg/mL) | 10 (≈ 2.4 µg/mL) | 25 (≈ 5.99 µg/mL) | 2.5 (≈ 0.599 µg/mL) | in-gel fluorescence competition with 5-TMRIA (Sf_FabH): rapid covalent bond formation between 10-F05 and Sf_FabH (Figure 5B); in-gel fluorescence competition with 5-TMRIA (Sf_MiaA [3]): indicating 10-F05 specifically reacts with MiaA Cys273; MIC (P. aeruginosa BAA-2110): > 100 µM; MIC (K. pneumoniae 13883): 50 µM (≈ 12 µg/mL); MIC (E. cloacae 13047): 50 µM (≈ 12 µg/mL); MIC (A. baumannii BAA-1790): > 100 µM; MIC (K. pneumoniae 700603): > 100 µM; MIC (E. coli (KPC+) BAA-2340): 50 µM (≈ 12 µg/mL); in-gel fluorescence competition with 5-TMRIA (Sa_FabH): 10-F05 was able to bind with S. aureus FabH (Sa_FabH, Figure 5C); in-gel fluorescence competition with 5-TMRIA (Sf_PdxY): preincubation of 10-F05 decreased the 5-TMRIA labeling in a dose-dependent manner (Figure 5A); fold decrease in initial velocity (Sf_MiaA [4]): 1.7 fold
8 | Cn1cc(C(=O)CCl)nn1 [10-M19] | – | 50 (≈ 7.98 µg/mL) | 100 (≈ 16 µg/mL) | 50 (≈ 7.98 µg/mL) | 50 (≈ 7.98 µg/mL) | –

From article doi:10.1101/2024.01.22.576576v1, “Phenotypic screening of covalent compound libraries identifies chloromethyl ketone antibiotics and MiaA as a new target” (biorxiv, 2024)
